#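 Compound exposure: 48 hours, 5 concentrations, 96-well plates. The concentration for 50% growth inhibition is given as GI50.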 Activity calls are given as the source filed them. Cut-off read from the data, not from the text of the source: active = GI50 up to about 1.1 µM and inactive = higher.
# Tests used:
# Experiment in all cases: NCI anticancer screen, dose series, 48 h
# [1] = test system: NCI-H460
# [2] = test system: NCI-H23
# [3] = test system: SF-295
# [4] = test system: OVCAR-8
# [5] = test system: SW-620
# [6] = test system: 786-0
# [7] = test system: OVCAR-4
# [8] = test system: SK-OV-3
# [9] = test system: DU-145
# [10] = test system: HOP-62
# [11] = test system: SF-539
# [12] = test system: UACC-257
# [13] = test system: LOX IMVI
# [14] = test system: CCRF-CEM
# [15] = test system: NCI/ADR-RES
# [16] = test system: NCI-H226
# [17] = test system: TK-10
# [18] = test system: A498
# [19] = test system: IGROV-1
# [20] = test system: RPMI-8226
# [21] = test system: PC-3
# [22] = test system: U-251
# [23] = test system: OVCAR-3
# [24] = test system: SNB-19
# [25] = test system: UO-31
# [26] = test system: SF-268
# [27] = test system: SK-MEL-28
# [28] = test system: ACHN
# [29] = test system: MDA-MB-231
# [30] = test system: NCI-H522
# [31] = test system: KM12
# [32] = test system: MDA-N
# [33] = test system: HL-60
# [34] = test system: T47D
# [35] = test system: SR
# [36] = test system: A549
# [37] = test system: HCT-15
# [38] = test system: K562
# [39] = test system: Hs-578T
# [40] = test system: HCT-116
# [41] = test system: UACC-62
# [42] = test system: RXF 393
# [43] = test system: Malme-3M
# [44] = test system: COLO 205
# [45] = test system: MCF7
# [46] = test system: BT-549
# [47] = test system: HOP-92
# [48] = test system: SK-MEL-2
# [49] = test system: SN12C
# [50] = test system: SNB-75
# [51] = test system: MOLT-4
# [52] = test system: EKVX
# [53] = test system: M14
# [54] = test system: MDA-MB-435
# [55] = test system: CAKI-1
# [56] = test system: HT-29
# [57] = test system: OVCAR-5
# [58] = test system: SK-MEL-5
# [59] = test system: HCC 2998
# [60] = test system: LXFL 529
compound,measurement,setting,value
CC(=O)N1C(=O)/C(=C\C(=O)c2ccc(Cl)cc2)c2ccccc21,GI50,[1],15 µM (inactive)
same,GI50,[2],15.6 µM (inactive)
same,GI50,[3],21.1 µM (inactive)
same,GI50,[4],14.1 µM (inactive)
same,GI50,[5],4.24 µM (inactive)
same,GI50,[6],4.27 µM (inactive)
same,GI50,[7],16.7 µM (inactive)
same,GI50,[8],22.8 µM (inactive)
same,GI50,[9],17.1 µM (inactive)
same,GI50,[10],20.1 µM (inactive)
same,GI50,[11],12.2 µM (inactive)
same,GI50,[12],14.9 µM (inactive)
same,GI50,[13],2.3 µM (inactive)
same,GI50,[14],2.61 µM (inactive)
same,GI50,[15],20.6 µM (inactive)
same,GI50,[16],19.9 µM (inactive)
same,GI50,[17],15.6 µM (inactive)
same,GI50,[18],19.2 µM (inactive)
same,GI50,[19],16.7 µM (inactive)
same,GI50,[20],24.4 µM (inactive)
same,GI50,[21],11.4 µM (inactive)
same,GI50,[22],15.5 µM (inactive)
same,GI50,[23],10.1 µM (inactive)
same,GI50,[24],24.8 µM (inactive)
same,GI50,[25],15.4 µM (inactive)
same,GI50,[26],18 µM (inactive)
same,GI50,[27],14 µM (inactive)
same,GI50,[28],9.31 µM (inactive)
same,GI50,[29],13.9 µM (inactive)
same,GI50,[30],10.9 µM (inactive)
same,GI50,[31],16.9 µM (inactive)
same,GI50,[32],14.4 µM (inactive)
same,GI50,[33],2.28 µM (inactive)
same,GI50,[34],16.5 µM (inactive)
same,GI50,[35],2.48 µM (inactive)
same,GI50,[36],13.5 µM (inactive)
same,GI50,[37],6.73 µM
same,GI50,[38],12 µM (inactive)
same,GI50,[39],19.5 µM (inactive)
same,GI50,[40],9.29 µM (inactive)
same,GI50,[41],13.4 µM (inactive)
same,GI50,[42],15.3 µM (inactive)
same,GI50,[43],16.3 µM (inactive)
same,GI50,[44],9.44 µM (inactive)
same,GI50,[45],21 µM (inactive)
same,GI50,[46],4.19 µM (inactive)
same,GI50,[47],18.3 µM (inactive)
same,GI50,[48],18.5 µM (inactive)
same,GI50,[49],15.3 µM (inactive)
same,GI50,[50],17.7 µM (inactive)
same,GI50,[51],3.43 µM (inactive)
same,GI50,[52],17.6 µM (inactive)
same,GI50,[53],16.5 µM (inactive)
same,GI50,[54],14.1 µM (inactive)
same,GI50,[55],13.3 µM (inactive)
same,GI50,[56],4.32 µM (inactive)
same,GI50,[57],20 µM (inactive)
same,GI50,[58],19.2 µM (inactive)
same,GI50,[59],15.9 µM (inactive)
CNc1nc(N(C)C)nc(N(C)C)n1 [PENTAMETHYL MELAMINE],GI50,[60],> 100 µM (inactive)

# Source: ChEMBL document CHEMBL1201862, “PubChem BioAssay data set” (2004)
